In patent US9873695B2, “Serine derivatives as ghrelin receptor agonists” (RaQualia Pharma Inc., priority 2014, dated 2018):

target: T1, human ghrelin receptor (Homo sapiens, UniProt Q92847); assay: Ghrelin receptor agonistic activity induced Ca2+ influx in HEK293 cells stably expressing human ghrelin receptor; format: cell-based; conditions: Ca2+ influx (Fluo-4, FDSS6000), 11-point dose-response
T1 construct: expressed in transfected cells
Experimental: Measurement of the Ghrelin Receptor Agonistic Activity Induced Ca^2+ Influx in HEK293 Cells Stably Expressing Human Ghrelin Receptor
HEK293 cells stably expressing human ghrelin receptor were maintained in Dulbecco's modified Eagle medium (high glucose) supplemented with 10% fetal bovine serum, 100 units/ml penicillin, 100 microg/ml streptomycin and 500 microg/ml G418 at 37° C. in a humidified incubator with 5% CO2 and grown to 60-80% confluence. The day before the assay, the cells were seeded on poly-D-lysine coated 384-well plates (BD FALCON) at a density of 10,000 cells per well, and incubated overnight in incubator.
On the day of the assay, the cells were washed three times with assay buffer (Hanks' balanced salt solution with 20 mM HEPES, pH7.4), and were incubated for 1 hour at room temperature to load 0.5 microM Fluo-4 AM reagent (Invitrogen).
After removing Fluo-4, and washing with assay buffer, the cells were added with various concentrations of the compounds. The changes in intracellular calcium concentration were monitored with the fluorescence imaging plate reader, FDSS6000 (Hamamatsu Photonics).
The EC50 values for compounds of the present invention were determined from 11-point dose-response studies. Curves were generated using the average of duplicate wells for each data point. Finally, the EC50 values were calculated using the best-fit dose curve determined by XLfit (ID Business Solutions Ltd).

T1 sequence (Q92847 whole entry): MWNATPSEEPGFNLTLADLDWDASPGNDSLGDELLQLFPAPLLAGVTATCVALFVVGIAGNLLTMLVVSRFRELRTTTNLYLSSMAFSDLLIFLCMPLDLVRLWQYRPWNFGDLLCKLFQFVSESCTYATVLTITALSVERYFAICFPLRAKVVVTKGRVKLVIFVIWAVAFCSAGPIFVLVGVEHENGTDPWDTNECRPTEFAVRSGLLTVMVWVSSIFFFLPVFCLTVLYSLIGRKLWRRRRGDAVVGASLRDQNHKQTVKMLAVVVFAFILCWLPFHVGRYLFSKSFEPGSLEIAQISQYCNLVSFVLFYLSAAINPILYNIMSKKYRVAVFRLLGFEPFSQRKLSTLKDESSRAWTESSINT

EC50 | Structure (SMILES)
< 10 nM | CN1N=C2CCN(C(=O)[C@@H](COc3cncc(F)c3)NC(=O)C(C)(C)N)C[C@@]2(Cc2ccccc2)C1=O [Example 18, 2-amino-N—((R)-1-((R)-3a-benzyl-2-methyl-3-oxo-3a,4,6,7-tetrahydro-2H-pyrazolo[4,3-c]pyridin-5(3H)-yl)-3-((5-fluoropyridin-3-yl)oxy)-1-oxopropan-2-yl)-2-methylpropanamide]
< 10 nM | CN1N=C2CCN(C(=O)[C@@H](COc3ccc(C#N)cc3)NC(=O)C(C)(C)N)C[C@@]2(Cc2ccccc2)C1=O [Example 20, 2-amino-N—((R)-1-((R)-3a-benzyl-2-methyl-3-oxo-3a,4,6,7-tetrahydro-2H-pyrazolo[4,3-c]pyridin-5(3H)-yl)-3-(4-cyanophenoxy)-1-oxopropan-2-yl)-2-methylpropanamide]
< 10 nM | CN1N=C2CCN(C(=O)[C@@H](COc3ccccn3)NC(=O)C(C)(C)N)C[C@@]2(Cc2ccccc2)C1=O [Example 17, 2-amino-N—((R)-1-((R)-3a-benzyl-2-methyl-3-oxo-3a,4,6,7-tetrahydro-2H-pyrazolo[4,3-c]pyridin-5(3H)-yl)-1-oxo-3-(pyridin-2-yloxy)propan-2-yl)-2-methylpropanamide]
< 10 nM | CN1N=C2CCN(C(=O)[C@@H](COc3cc(C(F)(F)F)cc(C(F)(F)F)c3)NC(=O)C(C)(C)N)C[C@@]2(Cc2ccccc2)C1=O [Example 9, 2-amino-N—((R)-1-((R)-3a-benzyl-2-methyl-3-oxo-3a,4,6,7-tetrahydro-2H-pyrazolo[4,3-c]pyridin-5(3H)-yl)-3-(3,5-bis(trifluoromethyl)phenoxy)-1-oxopropan-2-yl)-2-methylpropanamide]
